{ooo} = Boc-miniPEG-3 linker between TAMRA and the PNA; {TAMRA} = TAMRA dye conjugated to the PNA N-terminus; {Lys} = C-terminal lysine residue of the PNA
Test: Negative-stain transmission electron microscopy (TEM) of lipid/PNA complexes
Type: physicochemical
Method: Transmission electron microscopy (TEM): Negatively-stained transmission electron microscopic (TEM) images were obtained using FEI Tecnai T12. The samples were prepared by spreading 5 μL 0.001 wt. % solution on a 400 mesh Formvar/carbon film copper grid (Electron Microscopy Sciences, PA, USA) and negative staining was applied with 10 mg/mL of Uranyl acetate (SPI Supplies, PA, USA). The grids were then dried at 25° C. The accelerating voltage of the TEM was set at 80 kV.

Substance | morphology (TEM)
5′ TAMRA-ooo-ACCCCTATCACGATTAGCATTAA-Lys 3′ (all peptide nucleic acid (PNA), 5' {TAMRA}-{ooo}, 3' {Lys}) [PNA-155] | uniform discoidal morphology
5′ TAMRA-ooo-TCAGCCGCTGTCACACGCACAG-Lys-3′ (all peptide nucleic acid (PNA), 5' {TAMRA}-{ooo}, 3' {Lys}) [PNA-210] | uniform discoidal morphology
